According to US10894777B2, “TG2 inhibitor piperazine compounds and uses thereof” (UNIVERSITY OF OTTAWA, priority 2016, dated 2021):

Legend:
TG2 [1] = molecular target: T1, TG2 (Homo sapiens, UniProt P21980); test: Colorimetric transamidase activity assay (AL5 substrate), hTG2; assay type: biochemical
T1 sequence (P21980 1-687): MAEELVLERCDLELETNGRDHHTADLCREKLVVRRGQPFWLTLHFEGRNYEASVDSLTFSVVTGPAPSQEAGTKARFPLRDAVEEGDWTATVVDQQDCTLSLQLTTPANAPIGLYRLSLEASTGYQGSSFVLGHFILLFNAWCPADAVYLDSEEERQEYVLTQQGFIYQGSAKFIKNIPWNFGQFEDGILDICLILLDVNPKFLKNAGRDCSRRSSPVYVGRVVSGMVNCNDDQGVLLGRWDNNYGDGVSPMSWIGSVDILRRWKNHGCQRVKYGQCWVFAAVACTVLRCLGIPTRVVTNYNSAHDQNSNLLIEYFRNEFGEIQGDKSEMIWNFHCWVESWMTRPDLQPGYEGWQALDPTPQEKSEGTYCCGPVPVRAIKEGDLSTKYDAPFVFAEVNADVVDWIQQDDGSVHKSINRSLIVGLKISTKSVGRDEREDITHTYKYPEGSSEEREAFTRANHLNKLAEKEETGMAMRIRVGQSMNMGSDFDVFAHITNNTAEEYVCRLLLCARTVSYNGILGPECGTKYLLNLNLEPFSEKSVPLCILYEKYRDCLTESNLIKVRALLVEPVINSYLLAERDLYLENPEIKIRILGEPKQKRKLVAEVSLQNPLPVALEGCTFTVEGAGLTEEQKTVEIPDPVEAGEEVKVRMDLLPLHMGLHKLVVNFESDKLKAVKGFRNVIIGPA
Protocol: In Vitro Assays. Colorimetric transamidase activity assay. The activities of hTG1, hTG2 and hTG6 were measured via a colorimetric assay using the chromogenic substrate Cbz-Glu(γ-p-nitrophenyl ester)Gly (AL5). The assay was conducted at 25° C. in 100 mM MOPS buffer (pH 6.5) containing 3.0 mM CaCl2 and 50 μM EDTA. […] A stock solution of AL5 was prepared in DMSO such that the final concentration of this co-solvent was constant at 2.5% v/v. Stock solutions of the inhibitors were made in the buffer system previously described. The reaction was initiated with the addition of 40-60 mU/mL of the respective enzyme (0.10 μM hTG1, 0.25 μM hTG2 or 0.32 μM hTG6). Product formation was monitored at 405 nm in a polystyrene 96-well microplate using a BioTek Synergy 4 plate reader. […] Observed first-order rate constants of inactivation (kobs) were determined from non-linear regression fit to a mono-exponential model (Equation 1) of the observed absorbance of the enzymatic hydrolysis product, p-nitrophenolate (pNP). […] Experiments were done in triplicate and variation between repeats was less than 30%.

T98G cells = test: Agarose colony formation assay, T98G cells; assay type: cell-based, human; details: 10 μM, 2 weeks
Protocol: Agarose colony formation assay. Agarose colony formation assay was conducted as described (Horman, S. R. et al., J. Biomol. Screen 18(10):1298-308, 2013; Zhang, K. et al., Tumour Biol. 35(3):2537-48, 2014) using 6-well plates and 5,000 cells in each well. 10 μM NC9 or DMSO was added to every layer at the start of the experiments. 2 mL liquid MEM containing 10 μM NC9 or DMSO was used to cover the agarose and it was changed 3 times a week. Colony growth was monitored every day and at the end of 10-15 days, the colonies were fixed with 4% paraformaldehyde, stained with 0.005% crystal violet, washed with PBS twice and 40 random pictures were taken from each treatment group. A person blinded for the treatments measured the area of the colonies using ImageJ program and the volumes were calculated from the area data under the assumption that the colonies are perfect spheres. The volumes were used to compare the effect of NC9 on colony growth.

[2] = system: rat primary cortical neurons; test: Neuronal viability by resazurin assay; assay type: cell-based; details: 24 h
Protocol: DMSO was used as a control. At the end of the treatment, neuronal viability was measured by resazurin assay. Results are shown as a percent of DMSO control (±SEM) (N=3).

SCC-13 cells = test: Spheroid formation / survival assay, SCC-13 cells (ECS cells); assay type: cell-based, human; details: for spheroid formation (cancer stem cell survival): 8 d spheroids, 20 μM, 48 h
Protocol: Spheroid formation assay. Cells, maintained as monolayer cultures in growth medium consisting of DMEM (Invitrogen, Frederick, Md.) supplemented with 4.5 mg/ml D-glucose, […] L-glutamine, […] sodium pyruvate, and 5% fetal calf serum, were harvested, collected by centrifugation, and resuspended in spheroid medium comprising DMEM/F12 (1:1) (DMT-10-090-CV, Mediatech Inc., Manassas, Va.) supplemented with 2% B27 serum-free supplement (17504-044, Invitrogen, Frederick, Md.), 20 ng/ml EGF (E4269, Sigma, St. Louis, Mo.), 0.4% bovine serum albumin (B4287, Sigma) and 4 μg/ml insulin (19278 Sigma, St. Louis, Mo.). The cells (40,000) were plated in 9.6 cm^2 wells in Costar six well ultra-low attachment cluster dishes (4371, Corning, Tewksbury, Mass.). Spheroid size and number was monitored with time in culture as previously described (Adhikary, G. et al., PLoS One 8:e84324, 2013).
Spheroid formation assay. Spheroid formation assays were exactly as outlined previously (Adhikary, G. et al., PLoS ONE 8:e84324, 2013), except that the spheroids were grown in six well ultra-low attachment Costar cluster dishes (4371, Corning, Tewksbury, Mass.).
Spheroid formation assay. Spheroid formation assays were as reported previously (Adhikary, G. et al., PLoS One 8:e84324, 2013), except that the spheroids were grown in 6-well ultralow attachment Costar cluster dishes (Corning).

endogenous TG2 = molecular target: T2, endogenous TG2 (Homo sapiens, UniProt P21980); test: TG2 GTP-agarose pull-down assay, HaCaT cells; assay type: cell-based; details: 48 h
T2 construct: endogenous in cells; host or cells: HaCaT
T2 sequence (P21980 1-687): T1 sequence (P21980 1-687)
Protocol: (§1) HaCaT cells were electroporated with mCer-TG2 or mCer-TG2-YAP and then treated with 0 or 5 μM of the indicated inhibitor and fluorescent lifetime was monitored. […] HaCaT cells were preloaded with fluorescein cadaverine, treated with the indicated inhibitor and then challenged with calcium ionophore, washed and assayed for FC incorporation. […] HaCaT were incubated for 48 h with the indicated inhibitor and extracts were prepared and incubated with GTP-agarose beads to measure TG2 binding to GTP agarose. The beads were then washed, boiled in Laemmli buffer and electrophoresed for immunoblot detection of TG2. Cell equivalent quantities of total and bound samples were electrophoresed to facilitate comparison of GTP bound versus total. […] Experiments were performed as described in FIGS. 31 (F) and (G).

HaCaT cells = test: Matrigel invasion assay, HaCaT cells; assay type: cell-based, human; details: 20 μM, 24 h
TG2 [3] = molecular target: T1, TG2; test: In situ TG2 transamidase activity (FC incorporation), HaCaT cells; assay type: cell-based; design: endogenous in cells
Protocol: as §1
(§2) In situ TG2 transamidase activity assay. Cells (40,000) were plated in 24-well attachment dishes in spheroid media and grown until 50% confluent. FC was added in 2 ml of serum-free medium at a final concentration of 20 μM and incubated for 4 h. […] After 30 min, the wells were supplemented with 10 NM A23187, a calcium ionophore.

TG2 [4] = molecular target: T1, TG2; test: In situ TG2 transamidase activity assay (fluorescein cadaverine incorporation), SCC-13 cells; assay type: cell-based; design: endogenous in cells; host or cells: SCC-13; details: for FC incorporation (TG2 transamidase activity): 20 μM 30 min, then A23187 90 min
Protocol: Insitu TG2 activity assay. Cells (40,000) were plated in 24-well attachment dishes in spheroid media and grown until 50% confluent. Fluorescein cadaverine (FC) was added in 2 mL of serum-free medium at a final concentration of 20 μM and incubated for 4 hours. The wells were washed twice with serum-free spheroid medium, and then 2 mL of fresh serum-free medium was added containing 0-20 μM NC9. After 30 min, the wells were supplemented with 10 μM A23187. Cells were incubated for an additional 90 min and then washed three times with Ca^++/Mg^++-free HBSS, fixed with formalin, and washed with phosphate-buffered saline and imaged to detect fluorescein.
as §2

Row | kinact (TG2 [1]; Table 8, read-out: kinact (converted)) [s⁻¹] | kinact/KI (TG2 [1]; read-out: kinact/KI (10^3M^−1 min^−1), Table 8) [M⁻¹ s⁻¹] | SMILES | kobs (10^−3 min^−1), TG2 (TG2 [1]; Table 9, Kitz and Wilson conditions, inhibitor concentration adjusted for competition with substrate) | colony growth, T98G (T98G cells) | neuronal viability / tolerability [2] | spheroid number, formation from single cells (SCC-13 cells; 10 or 20 μM single addition, 0-14 days, after day eight) | spheroid formation (cancer stem cell survival) (SCC-13 cells) | spheroid number, pre-formed spheroids (SCC-13 cells; spheroids grown for 8 days, then treated) | TG2 GTP binding (endogenous TG2) | invasion through matrigel (HaCaT cells) | TG2 transamidase activity (FC incorporation) (TG2 [3]) | FC incorporation (TG2 transamidase activity) (TG2 [4]) | TG2 transamidase activity (FC incorporation) (TG2 [4]; 20 μM NC9, calcium ionophore) | reduction in the inhibition binding constant (TG2 [1]; compared to NC9)
1 | – | – | C=CC(=O)NCCCC[C@H](NC(=O)OCc1ccccc1)C(=O)NCCOCCOCCNS(=O)(=O)c1cccc2c(N(C)C)cccc12 [NC9] | 390 ± 49 10^−3 min^−1 | significantly reduced the growth | well tolerated up to 10 μM concentration | selectively declined | inhibited spheroid formation | reduced spheroid number | reduced TG2 GTP binding | suppressed | suppressed TG2 transamidase activity | drastically reduced | reduced | –
2 | – | – | C=CC(=O)NCCCC[C@H](NC(=O)OCc1ccccc1)C(=O)N1CCN(S(=O)(=O)c2cccc3c(N(C)C)cccc23)CC1 [VA4, (S)-benzyl(6-acrylamido-1-(4-((5-(dimethylamino)naphthalen-1-yl)sulfonyl)piperazin-1-yl)-1-oxohexan-2-yl)carbamate] | – | inhibited colony growth | well tolerated up to 10 μM concentration | – | inhibited spheroid formation | – | reduced TG2 GTP binding | suppressed | suppressed TG2 transamidase activity | drastically reduced | – | greater than two-fold reduction
3 | 0.0115 | 1040 | C=CC(=O)NCCCC[C@H](NC(=O)OCc1ccccc1)C(=O)N1CCN(C(=O)c2cc3ccc(O)cc3oc2=O)CC1 [VA5, (S)-Benzyl(6-acrylamido-1-(4-(7-hydroxy-2-oxo-2H-chromene-3-carbonyl)piperazin-1-yl)-1-oxohexan-2-yl)carbamate] | – | did not suppress colony growth | well tolerated up to 10 μM concentration | – | inhibited spheroid formation | – | reduced TG2 GTP binding | suppressed | suppressed TG2 transamidase activity | drastically reduced | – | –
